Experimental data: patent US20070276011A1, “Plasminogen Activator Inhibitor-1 Inhibitor” (priority 2003, published 2007)

Target: recombinant human PAI-1 (Homo sapiens, UniProt P05121)
Experiment: PAI-1 inhibitory activity, Test Method A (tPA fluorogenic substrate, Tris buffer pH8.0, 37 C)
Format: biochemical
Settings: 25 μM test compound; Test Method A

Chain of recombinant human PAI-1 (P05121 24-402): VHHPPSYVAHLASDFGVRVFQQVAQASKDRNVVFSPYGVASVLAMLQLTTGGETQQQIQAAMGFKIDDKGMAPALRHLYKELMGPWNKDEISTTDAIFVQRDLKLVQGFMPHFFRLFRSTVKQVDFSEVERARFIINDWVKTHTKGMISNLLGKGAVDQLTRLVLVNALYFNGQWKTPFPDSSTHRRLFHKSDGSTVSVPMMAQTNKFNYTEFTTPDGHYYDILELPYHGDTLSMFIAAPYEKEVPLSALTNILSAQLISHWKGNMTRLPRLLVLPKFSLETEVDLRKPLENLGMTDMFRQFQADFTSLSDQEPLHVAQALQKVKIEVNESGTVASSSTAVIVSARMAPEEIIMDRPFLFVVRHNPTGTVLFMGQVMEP

Row | Compound | Inhibitory Ratio at 25 μM (%)
1 | COc1cc(C=C2SC(=O)N(Cc3ccc(Cl)c(Cl)c3)C2=O)cc(C(=O)Nc2cc(C(F)(F)F)ccc2Cl)c1O [compound 439] | 89%
2 | O=C1SC(=Cc2ccc3c(c2)OCO3)C(=O)N1Cc1ccc(Cl)cc1Cl [compound 336] | 61%
3 | CCOC1=NN(c2ccc([N+](=O)[O-])cc2)C(=O)C1=Cc1cc(C=Cc2ccc(Oc3ccccc3)cc2)ccc1O [Compound No. 565, 4 [2-Hydroxy-5-(4-phenoxystyryl)benzylidene]-1-(4-nitrophenyl)-3-ethoxy-2-pyrazolin-5-one] | >99%
4 | COc1ccc(NC(=O)c2cccc(C=C3SC(=O)N(Cc4ccc(Cl)c(Cl)c4)C3=O)c2)cc1OC [compound 357] | 82%

Continued, values first:

Row | Inhibitory Ratio at 25 μM (%) | Compound
5 | 91% | COc1cc(C=C2C(=O)N(c3ccc(Cl)c(Cl)c3)N=C2C(C)C)cc([N+](=O)[O-])c1O [compound 561]
6 | >99% | CCOC1=NN(c2ccc([N+](=O)[O-])cc2)C(=O)C1=Cc1cc(C=Cc2ccccc2)ccc1O [compound 541, 4-(2-hydroxy-5-styrylbenzylidene)-1-(4-nitrophenyl)-3-ethoxy-2-pyrazolin-5-one]
7 | 72% | O=C(Nc1ccc(O)cc1)c1cc(C=C2SC(=O)N(Cc3ccc(Cl)c(Cl)c3)C2=O)ccc1O [compound 354]
8 | >99% | CC(C)C1=NN(c2cc(Cl)cc(Cl)c2)C(=O)C1=Cc1cc(O)c(O)c(Br)c1 [compound 540]
9 | >99% | CC(C)C1=NN(Cc2ccc(Cl)c(Cl)c2)C(=O)C1=Cc1cc(O)c(O)cc1O.N=C(N)NCCC[C@H](N)C(=O)O.N=C(N)NCCC[C@H](N)C(=O)O [compound 554, di(L-(+)-arginine) salt of 4-(2,4,5-trihydroxybenzylidene)-1-(3,4-dichlorobenzyl)-3-isopropyl-2-pyrazolin-5-one]
10 | 83% | COC(=O)c1cc(C=C2SC(=O)N(Cc3ccc(Cl)cc3Cl)C2=O)cc(OC)c1O [compound 429]
11 | >99% | O=C1SC(=Cc2cccc(O)c2O)C(=O)N1Cc1ccc(Nc2ccccc2)cc1 [compound 309]
12 | 32% | CCOC1=NN(c2ccc([N+](=O)[O-])cc2)C(=O)C1=Cc1cc(C(C)(C)C)ccc1O [compound 548]
13 | 96% | CCOC1=NN(c2ccc([N+](=O)[O-])cc2)C(=O)C1=Cc1c(O)ccc2ccccc12 [compound 546]
14 | >99% | COc1ccc(NC(=O)c2cc(C=C3SC(=O)N(Cc4ccc(C(F)(F)F)cc4)C3=O)ccc2O)cc1OC [compound 391, 5-[4-Hydroxy-3-(3,4-dimethoxyphenylcarbamoyl)benzylidene]-3-[4-(trifluoromethyl)benzyl]thiazolidine-2,4-dione]
15 | >99% | CCOC1=NN(c2ccc([N+](=O)[O-])cc2)C(=O)C1=Cc1cc(C=Cc2ccccc2)ccc1O[Si](C)(C)C(C)(C)C [compound 543]
16 | 66% | O=C1SC(=Cc2ccc(F)c(O)c2)C(=O)N1Cc1ccc(Cl)c(Cl)c1 [compound 326]
17 | 85% | COC(=O)c1ccc(C(=O)n2cc(C=C3SC(=O)N(Cc4ccc(Cl)c(Cl)c4)C3=O)c3ccccc32)cc1 [compound 427]
18 | 83% | Cc1ccc(O)cc1NC(=O)c1cc(C=C2SC(=O)N(Cc3ccc(Cl)c(Cl)c3)C2=O)ccc1O [compound 456]
19 | 86% | O=C1C(=Cc2cc(Br)ccc2O)C(c2ccc(O)cc2)=NN1c1cc(Cl)cc(Cl)c1 [compound 510]
20 | >99% | COc1ccc(NC(=O)c2cc(C=C3SC(=O)N(Cc4cccc(Oc5ccccc5)c4)C3=O)ccc2O)cc1OC [compound 399, 5-[4-Hydroxy-3-(3,4-dimethoxyphenylcarbamoyl)benzylidene]-3-(3-phenoxybenzyl)thiazolidine-2,4-dione]
21 | >99% | O=C1SC(=Cc2ccc(O)c(O)c2)C(=O)N1Cc1cccc(Nc2ccccc2)c1 [compound 318, 5-(3,4-Dihydroxybenzylidene)-3-[3-(phenylamino)benzyl]thiazolidine-2,4-dione]
22 | >99% | O=C1C(=Cc2cc(O)c(O)c(O)c2)SC(=S)N1Cc1ccc(Cl)c(Cl)c1 [compound 303]

Same assay, conditions: 50% inhibitory concentration of PAI-1 activity, according to the aforementioned method

Row | IC50 | Compound
23 | 390 nM | O=C1C(=Cc2cc(O)c(O)c(O)c2)SC(=S)N1Cc1ccc(Cl)c(Cl)c1 [compound 303]

Same assay, conditions: test compound 25 μM; Test Method A

Row | Inhibitory Ratio at 25 μM (%) | Compound
24 | >99% | O=C1SC(=Cc2cccc(O)c2O)C(=O)N1Cc1cccc(Cl)c1 [compound 30, 5-(2,3-Dihydroxybenzylidene)-3-(3-chlorobenzyl)thiazolidine-2,4-dione]
25 | 90% | O=C1C(=Cc2ccc(-c3cc(Cl)cc(Cl)c3)o2)C(C(F)(F)F)=NN1c1cccc([N+](=O)[O-])c1 [compound 182]
26 | >99% | O=C1SC(=Cc2cccc(O)c2O)C(=O)N1Cc1ccc(Cl)cc1 [compound 32, 5-(2,3-Dihydroxybenzylidene)-3-(4-chlorobenzyl)thiazolidine-2,4-dione]
27 | >99% | O=C1SC(=Cc2ccc([N+](=O)[O-])c(O)c2)C(=O)N1Cc1ccc(Cl)c(Cl)c1 [compound 87, 5-(3-hydroxy-4-nitrobenzylidene)-3-(3,4-dichlorobenzyl)-thiazolidine-2,4-dione]
28 | >99% | O=C1C(=Cc2cc(O)c(O)c(O)c2)C(C(F)(F)F)=NN1c1cc(Cl)cc(Cl)c1 [compound 149]
29 | >99% | O=C1SC(=Cc2cccc(O)c2O)C(=O)N1Cc1cc(F)cc(F)c1 [compound 24, 5-(2,3-Dihydroxybenzylidene)-3-(3,5-difluorobenzyl)thiazolidine-2,4-dione]
30 | 69% | CC1=NN(c2ccc(Cl)cc2)C(=O)C1=Cc1cc(O)c(O)cc1O [compound 224]
31 | >99% | O=C1C(=Cc2ccc(O)c(O)c2)C(c2ccccc2)=NN1c1cc(Cl)cc(Cl)c1 [compound 129, 4-(3,4-Dihydroxybenzylidene)-1-(3,5-dichlorophenyl)-3-phenyl-2-pyrazolin-5-one]
32 | 35% | O=C(O)c1cccc(N2N=C(c3ccccc3)C(=Cc3ccccc3)C2=O)c1 [compound 175]
33 | 71% | COc1cc(CN2C(=O)SC(=Cc3cccc(O)c3O)C2=O)cc(OC)c1 [compound 3, 5-(2,3-Dihydroxybenzylidene)-3-(3,5-dimethoxybenzyl)thiazolidine-2,4-dione]
34 | 82% | CC(C)C1=NN(c2cc(Cl)cc(Cl)c2)C(=O)C1=Cc1cccc(C(=O)O)c1 [compound 212]
35 | >99% | O=C1C(=Cc2ccc(Cl)c(Cl)c2)C(c2ccccc2)=NN1c1cccc([N+](=O)[O-])c1 [compound 201]
36 | 54% | CC1=NN(c2cccc(C(=O)O)c2)C(=O)C1=Cc1ccc(-c2ccc(C)c(Cl)c2)o1 [compound 187]
37 | 62% | COc1cc(C=C2C(=O)N(c3cccc(C(=O)O)c3)N=C2C)cc(Br)c1OCC(=O)NCc1ccccc1 [compound 174]
38 | >99% | CC(C)C1=NN(c2cc(Cl)cc(Cl)c2)C(=O)C1=Cc1ccc(O)c(O)c1O [compound 142]
39 | 40% | CCOC1=NN(c2ccc([N+](=O)[O-])cc2)C(=O)C1=Cc1ccc(C)c(OC)c1 [compound 213]
40 | 21% | O=C1C(=Cc2cc(Cl)ccc2O)SC(=S)N1c1ccccc1 [compound 65]
